In brackets after ≈: the same amount, converted by molar mass.
How the values were obtained:
HCT-116 = assay: Antiproliferative activity against human HCT116 cells assessed as reduction in cell viability by MTT assay; format: functional, cell-based
Histone deacetylase 8 = Histone deacetylase 8 (Homo sapiens, UniProt Q9BY41); assay: Inhibition of HDAC8 (unknown origin) by fluorescence based assay
K562 [1] = assay: Antiproliferative activity against human K562 cells assessed as reduction in cell viability by MTT assay; format: functional, cell-based
LoVo = assay: Antiproliferative activity against human LoVo cells assessed as reduction in cell viability by MTT assay; format: functional, cell-based
MCF7 [2] = assay: Antiproliferative activity against human MCF7 cells assessed as reduction in cell viability by MTT assay; format: functional, cell-based
[3] = biological target: Protein deacetylase HDAC6 (Homo sapiens, UniProt Q9UBN7); assay: Inhibition of HDAC6 (unknown origin) by fluorescence based assay
HepG2 [4] = assay: Antiproliferative activity against human HepG2 cells assessed as reduction in cell viability by MTT assay; format: functional, cell-based
Aromatase = Aromatase (Homo sapiens, UniProt P11511); assay: Inhibition of recombinant human CYP19 using MFC as substrate incubated for 30 mins in presence of NADPH by fluorescence based assay
[5] = Inhibition of bovine brain microtubule polymerization incubated for 60 mins by spectrophotometric method; parameters: species or system Bos taurus
A549 [6] = assay: Antiproliferative activity against human A549 cells assessed as reduction in cell viability after 72 hrs by MTT assay; format: functional, cell-based; details: A549, 72 h
HepG2 [7] = assay: Antiproliferative activity against human HepG2 cells assessed as reduction in cell viability after 72 hrs by MTT assay; format: functional, cell-based; details: HepG2, 72 h
K562 [8] = assay: Antiproliferative activity against human K562 cells assessed as reduction in cell viability after 72 hrs by MTT assay; format: functional, cell-based; details: K562, 72 h
HuCC-A1 = assay: Antiproliferative activity against human HuCCa1 cells assessed as reduction in cell viability after 3 days by MTT assay; format: functional, cell-based; details: HuCC-A1, 72 h
MOLT-3 = assay: Antiproliferative activity against human MOLT3 cells assessed as reduction in cell viability after 3 days by MTT assay; format: functional, cell-based; details: MOLT-3, 72 h
[9] = biological target: Sigma non-opioid intracellular receptor 1 (Cavia porcellus, UniProt Q60492); assay: Displacement of (+)-[3H]pentazocine from sigma1 receptor in guinea pig brain membranes; format: cell membranes
[10] = biological target: Induced myeloid leukemia cell differentiation protein Mcl-1 (Homo sapiens, UniProt Q07820); assay: Inhibition of MCL1 (unknown origin)
Histone deacetylase 3 = Histone deacetylase 3 (Homo sapiens, UniProt O15379); assay: Inhibition of HDAC3 (unknown origin)
Histone deacetylase 1 = Histone deacetylase 1 (Homo sapiens, UniProt Q13547)
Description: Inhibition of HDAC1 (unknown origin)

Histone deacetylase 2 = Histone deacetylase 2 (Homo sapiens, UniProt Q92769); assay: Inhibition of HDAC2 (unknown origin)
[11] = biological target: Polyamine deacetylase HDAC10 (Homo sapiens, UniProt Q969S8); assay: Inhibition of HDAC10 (unknown origin)
THP-1 = assay: Growth inhibition of human THP1 cells incubated for 72 hrs by trypan blue assay; format: functional; details: THP-1, 72 h
[12] = biological target: Histone deacetylase 3/Nuclear receptor corepressor 2 (HDAC3/NCoR2) (Homo sapiens, UniProt O15379); assay: Inhibition of recombinant human C-terminal GST/His-tagged HDAC3 (1 to 428 residues) co-expressed with human N-terminal GST-tagged NCOR2 (395 to 489 residues) in baculovirus infected Sf9 cells using Boc-Lys(Ac)-AMC as substrate preincubated for 15 mins followed by substrate addition and measured after 60 mins by fluorometric method
[13] = biological target: Bromodomain-containing protein 4 (Homo sapiens) (UniProt O60885); assay: Inhibition of GST-tagged BRD4 bromodomain 1/2 (unknown origin) at 10 uM incubated for 3 hrs by fluorescence based assay relative to control
HT-29 = assay: Antiproliferative activity against human HT-29 cells assessed as reduction in cell viability after 48 hrs by MTT assay; format: functional, cell-based; details: HT-29, 48 h
A549 [14] = assay: Antiproliferative activity against human A549 cells assessed as reduction in cell viability after 48 hrs by MTT assay; format: functional, cell-based; details: A549, 48 h
HepG2 [15] = assay: Antiproliferative activity against human HepG2 cells assessed as reduction in cell viability after 48 hrs by MTT assay; format: functional, cell-based; details: HepG2, 48 h
MCF7 [16] = assay: Antiproliferative activity against human MCF7 cells assessed as reduction in cell viability after 48 hrs by MTT assay; format: functional, cell-based; details: MCF7, 48 h
Tubulin = Tubulin (Bos taurus, UniProt Q6B856+Q862L2+Q862F3); assay: Inhibition of bovine brain tubulin polymerization by spectrometric analysis
HeLa = assay: Antiproliferative activity against human HeLa cells assessed as reduction in cell viability after 48 hrs by MTT assay; format: functional, cell-based

Chain of Sigma non-opioid intracellular receptor 1 (Q60492 whole entry): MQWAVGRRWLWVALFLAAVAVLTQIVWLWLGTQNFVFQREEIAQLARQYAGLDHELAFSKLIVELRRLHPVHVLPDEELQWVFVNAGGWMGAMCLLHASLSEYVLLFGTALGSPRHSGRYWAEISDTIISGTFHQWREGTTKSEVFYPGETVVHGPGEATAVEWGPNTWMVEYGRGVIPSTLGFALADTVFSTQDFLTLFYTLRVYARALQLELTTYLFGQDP
Chain of Histone deacetylase 3/Nuclear receptor corepressor 2 (HDAC3/NCoR2) (O15379 whole entry, the tested form may be a part): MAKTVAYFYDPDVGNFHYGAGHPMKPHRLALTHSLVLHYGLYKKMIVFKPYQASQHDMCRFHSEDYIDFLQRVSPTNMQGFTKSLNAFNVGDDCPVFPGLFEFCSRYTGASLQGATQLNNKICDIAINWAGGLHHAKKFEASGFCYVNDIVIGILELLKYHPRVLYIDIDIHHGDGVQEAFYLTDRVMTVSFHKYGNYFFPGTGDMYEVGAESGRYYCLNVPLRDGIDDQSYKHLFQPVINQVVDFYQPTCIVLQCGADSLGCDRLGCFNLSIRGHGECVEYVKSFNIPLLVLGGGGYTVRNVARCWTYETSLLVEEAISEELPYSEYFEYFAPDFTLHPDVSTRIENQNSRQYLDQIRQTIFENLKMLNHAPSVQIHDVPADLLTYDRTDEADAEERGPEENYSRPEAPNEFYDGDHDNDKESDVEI
Chain of Histone deacetylase 3/Nuclear receptor corepressor 2 (HDAC3/NCoR2) (Q9Y618 whole entry, further chain, the tested form may be a part): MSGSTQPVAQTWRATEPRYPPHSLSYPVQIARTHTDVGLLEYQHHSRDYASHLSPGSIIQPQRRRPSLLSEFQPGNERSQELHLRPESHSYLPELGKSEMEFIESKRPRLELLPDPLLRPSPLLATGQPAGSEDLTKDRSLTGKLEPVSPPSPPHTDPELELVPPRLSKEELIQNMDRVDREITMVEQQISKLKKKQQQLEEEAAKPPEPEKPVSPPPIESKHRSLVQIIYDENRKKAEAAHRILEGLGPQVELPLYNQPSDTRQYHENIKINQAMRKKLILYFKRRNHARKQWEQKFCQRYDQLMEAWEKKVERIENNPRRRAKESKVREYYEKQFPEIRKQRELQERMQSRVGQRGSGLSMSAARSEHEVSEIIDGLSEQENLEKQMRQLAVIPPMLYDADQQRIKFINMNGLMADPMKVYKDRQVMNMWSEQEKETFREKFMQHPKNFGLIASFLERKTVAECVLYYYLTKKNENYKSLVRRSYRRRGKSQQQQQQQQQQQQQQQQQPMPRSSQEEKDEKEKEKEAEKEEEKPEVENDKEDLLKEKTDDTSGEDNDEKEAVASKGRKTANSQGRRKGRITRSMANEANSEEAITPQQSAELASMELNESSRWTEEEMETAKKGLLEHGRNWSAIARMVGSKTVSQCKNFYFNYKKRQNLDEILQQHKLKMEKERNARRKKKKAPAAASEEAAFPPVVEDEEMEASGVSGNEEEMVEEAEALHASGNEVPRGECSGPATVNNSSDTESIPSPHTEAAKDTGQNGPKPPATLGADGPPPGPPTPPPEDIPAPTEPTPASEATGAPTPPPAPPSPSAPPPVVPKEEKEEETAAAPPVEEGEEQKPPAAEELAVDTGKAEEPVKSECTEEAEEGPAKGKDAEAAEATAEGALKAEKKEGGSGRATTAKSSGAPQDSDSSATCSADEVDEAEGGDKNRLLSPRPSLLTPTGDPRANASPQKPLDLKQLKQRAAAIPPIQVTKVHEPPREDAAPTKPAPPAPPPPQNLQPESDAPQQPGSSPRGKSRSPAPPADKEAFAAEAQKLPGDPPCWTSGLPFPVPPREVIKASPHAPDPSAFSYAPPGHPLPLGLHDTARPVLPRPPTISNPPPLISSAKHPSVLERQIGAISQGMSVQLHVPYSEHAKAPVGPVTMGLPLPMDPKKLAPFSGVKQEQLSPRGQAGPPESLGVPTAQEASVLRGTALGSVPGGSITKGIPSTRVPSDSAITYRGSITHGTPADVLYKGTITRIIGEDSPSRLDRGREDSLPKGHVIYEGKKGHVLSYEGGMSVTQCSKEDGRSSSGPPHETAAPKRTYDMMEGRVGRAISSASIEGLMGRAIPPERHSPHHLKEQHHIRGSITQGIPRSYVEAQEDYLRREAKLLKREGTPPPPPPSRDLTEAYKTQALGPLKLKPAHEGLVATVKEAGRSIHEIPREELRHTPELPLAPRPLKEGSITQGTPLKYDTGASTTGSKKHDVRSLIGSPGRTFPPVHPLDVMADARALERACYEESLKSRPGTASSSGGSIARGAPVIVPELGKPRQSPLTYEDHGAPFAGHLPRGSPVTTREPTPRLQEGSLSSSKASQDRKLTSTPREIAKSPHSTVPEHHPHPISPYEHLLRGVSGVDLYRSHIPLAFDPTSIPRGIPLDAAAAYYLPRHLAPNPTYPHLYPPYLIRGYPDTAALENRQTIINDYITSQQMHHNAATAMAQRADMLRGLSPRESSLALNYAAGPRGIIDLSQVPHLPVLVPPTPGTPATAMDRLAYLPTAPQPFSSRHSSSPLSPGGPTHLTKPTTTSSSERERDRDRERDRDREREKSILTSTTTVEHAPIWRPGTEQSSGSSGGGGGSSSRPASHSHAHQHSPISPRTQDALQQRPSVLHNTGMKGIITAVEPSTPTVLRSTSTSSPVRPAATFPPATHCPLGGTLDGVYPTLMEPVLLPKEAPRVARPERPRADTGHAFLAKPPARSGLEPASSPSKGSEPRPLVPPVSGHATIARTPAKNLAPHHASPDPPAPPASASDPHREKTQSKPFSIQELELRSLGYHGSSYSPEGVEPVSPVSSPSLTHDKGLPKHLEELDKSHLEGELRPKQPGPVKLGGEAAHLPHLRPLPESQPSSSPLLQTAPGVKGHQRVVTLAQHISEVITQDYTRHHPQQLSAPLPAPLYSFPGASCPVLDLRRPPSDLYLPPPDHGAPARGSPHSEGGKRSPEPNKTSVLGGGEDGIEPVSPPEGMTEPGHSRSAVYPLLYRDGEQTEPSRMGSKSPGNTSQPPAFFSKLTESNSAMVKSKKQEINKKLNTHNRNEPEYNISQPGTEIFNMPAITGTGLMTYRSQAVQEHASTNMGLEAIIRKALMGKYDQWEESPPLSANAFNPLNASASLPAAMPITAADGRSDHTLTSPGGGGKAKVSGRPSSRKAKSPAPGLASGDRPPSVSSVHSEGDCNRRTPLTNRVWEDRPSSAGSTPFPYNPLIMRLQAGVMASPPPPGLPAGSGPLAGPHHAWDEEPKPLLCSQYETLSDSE
Chain of Histone deacetylase 3 (O15379 whole entry): as the sequence (O15379 whole entry, the tested form may be a part) above
Chain of Induced myeloid leukemia cell differentiation protein Mcl-1 (Q07820 whole entry): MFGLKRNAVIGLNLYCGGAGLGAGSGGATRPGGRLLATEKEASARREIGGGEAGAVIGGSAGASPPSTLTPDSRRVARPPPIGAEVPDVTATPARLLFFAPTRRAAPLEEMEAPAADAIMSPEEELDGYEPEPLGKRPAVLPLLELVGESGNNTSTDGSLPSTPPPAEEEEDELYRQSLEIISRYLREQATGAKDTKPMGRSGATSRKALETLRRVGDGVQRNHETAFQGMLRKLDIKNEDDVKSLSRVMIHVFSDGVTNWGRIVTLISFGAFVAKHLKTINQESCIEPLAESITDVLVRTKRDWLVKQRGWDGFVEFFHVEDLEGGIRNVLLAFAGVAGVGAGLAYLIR
Chain of Histone deacetylase 2 (Q92769 whole entry): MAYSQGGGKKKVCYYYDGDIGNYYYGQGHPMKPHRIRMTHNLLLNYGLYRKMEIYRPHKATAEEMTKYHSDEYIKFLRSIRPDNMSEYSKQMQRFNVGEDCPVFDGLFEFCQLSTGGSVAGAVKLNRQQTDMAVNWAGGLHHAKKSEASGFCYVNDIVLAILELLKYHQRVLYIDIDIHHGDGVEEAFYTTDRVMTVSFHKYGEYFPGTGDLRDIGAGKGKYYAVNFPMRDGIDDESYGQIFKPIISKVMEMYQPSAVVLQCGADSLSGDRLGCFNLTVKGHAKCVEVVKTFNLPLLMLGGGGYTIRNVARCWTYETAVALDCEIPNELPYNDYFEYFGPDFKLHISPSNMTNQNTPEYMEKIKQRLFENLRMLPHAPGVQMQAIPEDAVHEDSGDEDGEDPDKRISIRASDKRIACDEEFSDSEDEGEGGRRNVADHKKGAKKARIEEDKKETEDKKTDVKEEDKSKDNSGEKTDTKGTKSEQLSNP
Chain of Histone deacetylase 1 (Q13547 whole entry): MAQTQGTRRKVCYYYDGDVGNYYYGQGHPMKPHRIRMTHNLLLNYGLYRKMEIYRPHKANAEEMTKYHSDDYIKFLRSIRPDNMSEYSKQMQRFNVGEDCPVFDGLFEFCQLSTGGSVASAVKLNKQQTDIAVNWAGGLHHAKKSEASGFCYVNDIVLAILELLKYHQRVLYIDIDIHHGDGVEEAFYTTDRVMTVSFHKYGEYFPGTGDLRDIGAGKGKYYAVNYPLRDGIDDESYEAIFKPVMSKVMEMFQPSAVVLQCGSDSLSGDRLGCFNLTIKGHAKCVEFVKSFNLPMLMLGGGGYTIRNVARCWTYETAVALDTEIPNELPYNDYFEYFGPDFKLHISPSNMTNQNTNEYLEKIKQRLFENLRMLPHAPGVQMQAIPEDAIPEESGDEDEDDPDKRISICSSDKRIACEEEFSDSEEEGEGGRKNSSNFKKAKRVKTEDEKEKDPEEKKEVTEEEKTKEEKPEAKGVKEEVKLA
Chain of Aromatase (P11511 whole entry): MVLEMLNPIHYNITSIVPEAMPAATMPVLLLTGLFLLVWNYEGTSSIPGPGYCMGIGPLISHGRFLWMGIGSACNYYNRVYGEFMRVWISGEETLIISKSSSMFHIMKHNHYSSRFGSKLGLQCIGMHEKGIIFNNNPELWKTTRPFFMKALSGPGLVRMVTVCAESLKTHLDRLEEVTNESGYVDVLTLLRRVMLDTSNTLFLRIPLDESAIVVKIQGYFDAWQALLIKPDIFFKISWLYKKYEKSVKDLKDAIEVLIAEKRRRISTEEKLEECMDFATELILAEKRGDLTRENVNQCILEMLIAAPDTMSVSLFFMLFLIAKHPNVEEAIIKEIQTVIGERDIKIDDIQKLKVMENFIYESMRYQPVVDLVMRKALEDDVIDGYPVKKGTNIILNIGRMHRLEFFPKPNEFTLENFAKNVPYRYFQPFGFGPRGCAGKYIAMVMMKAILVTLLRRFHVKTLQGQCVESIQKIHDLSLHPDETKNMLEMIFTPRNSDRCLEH

For `COc1ccc2[nH]cc(Cn3cc(COc4ccc(/C=C/C(=O)NO)cc4OC)nn3)c2c1`, the IC50 (HCT-116) was 3.57 to 6.21 µM, the IC50 (Histone deacetylase 8) was 0.38 µM and the IC50 (K562 [1]) was 3.57 to 6.21 µM. The IC50 (LoVo) was 3.57 to 6.21 µM, the IC50 (MCF7 [2]) was 3.57 to 6.21 µM and the IC50 [3] was 0.29 µM. For the same compound, the IC50 (HepG2 [4]) was 3.57 to 6.21 µM.

Work on `Cc1[nH]c2ccccc2c1/C=N\Nc1ccc(Cl)cc1` yielded an IC50 (Aromatase) of 8.72 µM.

`CC[C@]1(O)C[C@H]2CN(CCc3c([nH]c4ccccc34)[C@@](C(=O)OC)(c3cc4c(cc3OC)N(C=O)[C@H]3[C@@](O)(C(=O)OC)[C@H](OC(C)=O)[C@]5(CC)C=CCN6CC[C@]43[C@@H]65)C2)C1` [VINCRISTINE] showed a Ki [5] of 0.085 µM.

For `COc1cc(S(=O)(=O)/C=C/c2cccc3[nH]ccc23)cc(OC)c1OC`, the IC50 (A549 [6]) was 0.305 µM, the IC50 (HepG2 [7]) was 0.075 µM and the IC50 (K562 [8]) was 0.055 µM.

In the case of `O=S(=O)(NCCc1c(C(c2ccccc2O)c2[nH]c3ccccc3c2CCNS(=O)(=O)c2ccc(Cl)cc2)[nH]c2ccccc12)c1ccc(Cl)cc1`, the IC50 (A549 [6]) is reported as 8.74 µM and the IC50 (HuCC-A1) is reported as 7.75 µM.

Compound `O=[N+]([O-])c1ccc(S(=O)(=O)NCCc2c(C(c3ccccc3O)c3[nH]c4ccccc4c3CCNS(=O)(=O)c3ccc([N+](=O)[O-])cc3)[nH]c3ccccc23)cc1` has an IC50 (MOLT-3) of 3.95 µg/mL (≈ 4.97 µM).

Compound `COc1cc2c(cc1OC)CN(CCCCc1cn(-c3ccc(F)cc3)c3ccccc13)CC2` has a Ki [9] of 0.00534 µM.

`Cc1cc(OCCCc2c(C(=O)NS(=O)(=O)c3ccc(C(=O)NCc4ccccc4)o3)[nH]c3c(-c4c(C)n[nH]c4C)c(Cl)ccc23)cc(C)c1Cl` showed a Ki [10] of 0.0024 µM.

For `Nc1ccc(F)cc1NC(=O)c1ccc(CNC(=O)/C=C/c2cccnc2)cc1`, the IC50 (Histone deacetylase 3) was 0.067 µM, the IC50 (Histone deacetylase 1) was 0.095 µM and the IC50 (Histone deacetylase 2) was 0.16 µM. It also gave an IC50 [11] of 0.078 µM.

With `Cc1noc(C)c1-c1ccc2c(c1)c(Cc1ccc(F)cc1)cn2CCCCCCC(=O)NO` the GI50 (THP-1) was 7.82 to 24.2 µM, the IC50 [12] was 0.005 µM and the inhibition [13] was 88%.

`CN1CCN(c2ncc([N+](=O)[O-])c(Nc3c(C(=O)c4cccs4)[nH]c4cc(Cl)ccc34)n2)CC1` showed an IC50 (HT-29) of 5.56 µM and an IC50 (A549 [14]) of 14.4 µM.

`COc1cc(C2=NN(C(N)=O)C(c3cn(C)c4ccc(Br)cc34)C2)cc(OC)c1OC` (stereo unspecified) showed an IC50 (HepG2 [15]) of 0.31 µM, an IC50 (MCF7 [16]) of 0.29 µM and an IC50 (Tubulin) of 2.12 µM. For the same compound, the IC50 (HeLa) was 0.21 µM and the IC50 (A549 [14]) was 0.26 µM.
